Experimental data as given in paper PMC9516332 (Frontiers in Oncology, 2022).
Read-outs that look alike come from different tables or passages of the source.

Key:
Assay in all cases: Kinase panel profiling at 1 µmol/L (MSA or IMAP), percentage inhibition
Type in all cases: biochemical
[1] = biological target: panel of 255 wild-type kinases (Homo sapiens, UniProt O43683); conditions: read-out: %-inhibition BUB1/BUB3
[2] = biological target: T1, panel of 255 wild-type kinases (Homo sapiens, UniProt P41743); conditions: read-out: %-inhibition at 1 µmol/L, PKCι
T1 sequence (P41743 1-596): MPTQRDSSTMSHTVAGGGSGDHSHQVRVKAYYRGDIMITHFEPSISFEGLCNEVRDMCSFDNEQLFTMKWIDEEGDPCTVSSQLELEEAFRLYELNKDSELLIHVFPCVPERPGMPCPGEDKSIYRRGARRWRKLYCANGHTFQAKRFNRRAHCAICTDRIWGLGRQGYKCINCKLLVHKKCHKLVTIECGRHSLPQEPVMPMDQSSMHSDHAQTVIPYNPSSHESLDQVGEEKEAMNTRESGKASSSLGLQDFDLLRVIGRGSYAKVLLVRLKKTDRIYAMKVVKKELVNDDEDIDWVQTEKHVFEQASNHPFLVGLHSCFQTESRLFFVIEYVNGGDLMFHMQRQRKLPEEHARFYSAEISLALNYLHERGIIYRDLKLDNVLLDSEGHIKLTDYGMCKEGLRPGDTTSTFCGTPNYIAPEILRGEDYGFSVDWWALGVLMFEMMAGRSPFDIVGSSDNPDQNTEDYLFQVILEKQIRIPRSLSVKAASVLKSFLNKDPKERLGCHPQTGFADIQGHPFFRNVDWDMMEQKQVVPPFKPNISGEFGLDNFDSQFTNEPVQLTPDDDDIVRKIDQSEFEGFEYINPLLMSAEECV

[3] = biological target: panel of 255 wild-type kinases (Homo sapiens, UniProt Q9P286); conditions: read-out: %-inhibition, PAK5
[4] = biological target: panel of 255 wild-type kinases (Homo sapiens, UniProt P08069); conditions: read-out: %-inhibition at 1 µmol/L, IGF1R
[5] = biological target: panel of 255 wild-type kinases (Homo sapiens, UniProt Q9H2X6); conditions: read-out: %-inhibition at 1 µmol/L, HIPK2
[6] = biological target: T2, panel of 255 wild-type kinases (Homo sapiens, UniProt Q9NRM7); conditions: read-out: %-inhibition at 1 µmol/L, LATS2
T2 sequence (Q9NRM7 1-1088): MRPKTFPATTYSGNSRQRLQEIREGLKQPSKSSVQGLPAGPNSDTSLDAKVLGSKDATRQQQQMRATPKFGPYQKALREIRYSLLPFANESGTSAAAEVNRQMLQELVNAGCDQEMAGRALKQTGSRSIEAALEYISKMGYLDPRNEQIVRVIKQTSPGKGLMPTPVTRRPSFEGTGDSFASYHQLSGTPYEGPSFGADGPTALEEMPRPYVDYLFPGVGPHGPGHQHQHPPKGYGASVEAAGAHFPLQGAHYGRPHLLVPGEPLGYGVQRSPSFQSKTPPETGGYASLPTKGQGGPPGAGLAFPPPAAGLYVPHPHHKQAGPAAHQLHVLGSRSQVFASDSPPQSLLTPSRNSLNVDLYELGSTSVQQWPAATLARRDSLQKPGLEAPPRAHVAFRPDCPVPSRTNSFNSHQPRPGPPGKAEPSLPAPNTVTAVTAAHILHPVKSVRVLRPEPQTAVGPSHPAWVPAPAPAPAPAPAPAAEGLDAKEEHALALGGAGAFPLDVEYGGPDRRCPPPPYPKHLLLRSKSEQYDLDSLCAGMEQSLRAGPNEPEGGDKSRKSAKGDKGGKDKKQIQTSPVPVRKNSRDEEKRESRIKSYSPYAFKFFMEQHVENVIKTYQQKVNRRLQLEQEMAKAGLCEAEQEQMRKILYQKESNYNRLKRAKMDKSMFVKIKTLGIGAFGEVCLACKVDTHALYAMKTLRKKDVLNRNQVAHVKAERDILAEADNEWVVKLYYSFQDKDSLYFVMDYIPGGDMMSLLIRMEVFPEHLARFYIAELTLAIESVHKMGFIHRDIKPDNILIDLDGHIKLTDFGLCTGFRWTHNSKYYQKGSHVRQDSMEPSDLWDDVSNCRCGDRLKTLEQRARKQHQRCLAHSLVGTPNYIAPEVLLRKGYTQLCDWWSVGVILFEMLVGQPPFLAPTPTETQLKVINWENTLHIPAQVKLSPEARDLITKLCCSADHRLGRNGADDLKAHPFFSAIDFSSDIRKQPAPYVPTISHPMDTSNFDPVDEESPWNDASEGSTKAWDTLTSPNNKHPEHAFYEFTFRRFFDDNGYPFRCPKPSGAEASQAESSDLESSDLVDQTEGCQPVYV

[7] = BUB1/BUB3 kinase assay, 1 µmol/L single concentration
[8] = kinase PKCι, 1 µmol/L single concentration
[9] = PAK5, 1 µmol/L single concentration
[10] = kinase IGF1R, 1 µmol/L single concentration
[11] = kinase HIPK2, 1 µmol/L single concentration
[12] = kinase LATS2, 1 µmol/L single concentration

Structure (SMILES)	inhibition at 1 µM [1, 7]	inhibition at 1 µM [2, 8]	inhibition at 1 µM [3, 9]	inhibition at 1 µM [4, 10]	inhibition at 1 µM [5, 11]	inhibition at 1 µM [6, 12]	inhibition at 1 µM [1]	inhibition at 1 µM [2]	inhibition at 1 µM [3]	inhibition at 1 µM [4]	inhibition at 1 µM [5]	inhibition at 1 µM [6]
Cc1nc(NC(=O)N2CCC[C@H]2C(N)=O)sc1-c1ccnc(C(C)(C)C(F)(F)F)c1 [alpelisib]	-4.62%	21%	-2.58%	-0.261%	3.33%	-1%	–	–	–	–	–	–
Cn1cc(-c2cc3c(N4CCN(c5ncc([C@@](C)(N)c6ccc(F)cc6)cn5)CC4)ncnn3c2)cn1 [avapritinib]	4%	0.376%	4.51%	3.41%	4%	1.47%	–	–	–	–	–	–
Cn1cnc2c(F)c(Nc3ccc(Br)cc3F)c(C(=O)NOCCO)cc21 [binimetinib]	-3.43%	15%	5%	4.47%	-4.27%	-3%	–	–	–	–	–	–
CNC(=O)c1ccc(-c2cnc3ncc(Cc4ccc5ncccc5c4)n3n2)cc1F [capmatinib]	–	–	–	–	–	–	1.44%	-10%	0.765%	5.7%	0.264%	-7%
COc1cc2ncnc(Nc3ccc(F)c(Cl)c3)c2cc1NC(=O)/C=C/CN1CCCCC1 [dacomitinib]	22%	31%	4.29%	3.29%	4.76%	11%	–	–	–	–	–	–
C[C@H](Nc1ncnc2nc[nH]c12)c1cc2cccc(Cl)c2c(=O)n1-c1ccccc1 [duvelisib]	-3.41%	18%	-1%	1.51%	0.116%	8%	–	–	–	–	–	–
COC(=O)N[C@@H](C)CNc1nccc(-c2cn(C(C)C)nc2-c2cc(Cl)cc(NS(C)(=O)=O)c2F)n1 [encorafenib]	6%	-1.18%	0.399%	6.61%	0.238%	3.49%	–	–	–	–	–	–
CN1CCN(c2ccc(C(=O)Nc3n[nH]c4ccc(Cc5cc(F)cc(F)c5)cc34)c(NC3CCOCC3)c2)CC1 [entrectinib]	-5.38%	34%	25%	98%	8%	18%	–	–	–	–	–	–
CCc1nc(C(N)=O)c(Nc2ccc(N3CCC(N4CCN(C)CC4)CC3)c(OC)c2)nc1NC1CCOCC1 [gilteritinib]	54%	28%	92%	99%	84%	44%	–	–	–	–	–	–
CCN1CCN(c2ccc(Nc3cc(N(C)C(=O)Nc4c(Cl)c(OC)cc(OC)c4Cl)ncn3)cc2)CC1 [infigratinib]	-1.66%	-10%	2.49%	18%	-0.912%	-3.67%	–	–	–	–	–	–
O=C(Nc1cnn2ccc(N3CCC[C@@H]3c3cc(F)ccc3F)nc12)N1CC[C@H](O)C1 [larotrectinib]	-6%	-6%	-0.213%	3.6%	-0.39%	-3%	–	–	–	–	–	–
C[C@H]1Oc2cc(cnc2N)-c2c(nn(C)c2C#N)CN(C)C(=O)c2ccc(F)cc21 [lorlatinib]	-5%	19%	11%	79%	-2%	6%	–	–	–	–	–	–
CCN1C(=O)N(c2c(F)c(OC)cc(OC)c2F)Cc2cnc3[nH]c(CN4CCOCC4)cc3c21 [pemigatinib]	-3.37%	-4%	2.26%	7%	2.55%	-3%	–	–	–	–	–	–
FC(F)(F)c1ccc(CNc2ccc(Cc3c[nH]c4ncc(Cl)cc34)cn2)cn1 [pexidartinib]	5.7%	23%	7%	17%	4.6%	4%	–	–	–	–	–	–
CO[C@]1(C(=O)N[C@@H](C)c2ccc(-n3cc(F)cn3)nc2)CC[C@H](c2nc(C)cc(Nc3cc(C)[nH]n3)n2)CC1 [pralsetinib]	-0.908%	-7.5%	69%	10%	11%	7.44%	–	–	–	–	–	–
CCn1c(=O)c(-c2cc(NC(=O)Nc3ccccc3)c(F)cc2Br)cc2cnc(NC)cc21 [ripretinib]	2.76%	21%	1.9%	3.34%	0.0334%	-0.411%	–	–	–	–	–	–
COc1ccc(CN2C3CC2CN(c2ccc(-c4cc(OCC(C)(C)O)cn5ncc(C#N)c45)cn2)C3)cn1 [selpercatinib]	19%	-0.803%	9%	3%	0.223%	-5.4%	–	–	–	–	–	–
Cn1cnc2c(F)c(Nc3ccc(Br)cc3Cl)c(C(=O)NOCCO)cc21 [selumetinib]	-4%	-6.5%	0.473%	5.57%	2.71%	-3.38%	–	–	–	–	–	–
Cc1cc(Nc2ncnc3ccc(NC4=NC(C)(C)CO4)cc23)ccc1Oc1ccn2ncnc2c1 [tucatinib]	0.842%	-2.24%	3.53%	2.31%	6%	0.168%	–	–	–	–	–	–
C=CC(=O)N1CCC([C@@H]2CCNc3c(C(N)=O)c(-c4ccc(Oc5ccccc5)cc4)nn32)CC1 [zanubrutinib]	-6%	-8%	0.606%	3%	-0.321%	-0.0723%	–	–	–	–	–	–
